Data from patent US12037344B2, “NLRP3 modulators” (INNATE TUMOR IMMUNITY, INC., priority 2018, dated 2024).

How the values were obtained:
THP-1 cells = experiment: Measurement of IL-1β production, hTRF protocol (second alternative procedure), THP-1 cells; type: cell-based, human; conditions: Homo sapiens, THP-1, IL-1β production, human cells; read-out: NLRP3 hILIB EC50
Method in brief: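 Compounds, dilution series starting at a final 10 μM, were incubated 2 hours at 37° C with PMA-differentiated THP-1 cells (50 ng/ml overnight; 50,000 cells/well, 2% FBS RPMI). Released IL-1β quantified in supernatant by hTRF kit with 1:40 antibody dilution, 4° C overnight, 665/615 nm ratio.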

TLR7 = target: T1, TLR7 (Homo sapiens, UniProt Q9NYK1); experiment: In vitro human TLR7 binding reporter assay (HEK-Blue, NF-kB/AP1-inducible SEAP); type: cell-based; conditions: activity range, read-out: TLR7 Agonist EC50
T1 construct: human HEK-Blue cells co-expressing a TLR7 or TLR8 gene
T1 sequence (Q9NYK1 27-1049): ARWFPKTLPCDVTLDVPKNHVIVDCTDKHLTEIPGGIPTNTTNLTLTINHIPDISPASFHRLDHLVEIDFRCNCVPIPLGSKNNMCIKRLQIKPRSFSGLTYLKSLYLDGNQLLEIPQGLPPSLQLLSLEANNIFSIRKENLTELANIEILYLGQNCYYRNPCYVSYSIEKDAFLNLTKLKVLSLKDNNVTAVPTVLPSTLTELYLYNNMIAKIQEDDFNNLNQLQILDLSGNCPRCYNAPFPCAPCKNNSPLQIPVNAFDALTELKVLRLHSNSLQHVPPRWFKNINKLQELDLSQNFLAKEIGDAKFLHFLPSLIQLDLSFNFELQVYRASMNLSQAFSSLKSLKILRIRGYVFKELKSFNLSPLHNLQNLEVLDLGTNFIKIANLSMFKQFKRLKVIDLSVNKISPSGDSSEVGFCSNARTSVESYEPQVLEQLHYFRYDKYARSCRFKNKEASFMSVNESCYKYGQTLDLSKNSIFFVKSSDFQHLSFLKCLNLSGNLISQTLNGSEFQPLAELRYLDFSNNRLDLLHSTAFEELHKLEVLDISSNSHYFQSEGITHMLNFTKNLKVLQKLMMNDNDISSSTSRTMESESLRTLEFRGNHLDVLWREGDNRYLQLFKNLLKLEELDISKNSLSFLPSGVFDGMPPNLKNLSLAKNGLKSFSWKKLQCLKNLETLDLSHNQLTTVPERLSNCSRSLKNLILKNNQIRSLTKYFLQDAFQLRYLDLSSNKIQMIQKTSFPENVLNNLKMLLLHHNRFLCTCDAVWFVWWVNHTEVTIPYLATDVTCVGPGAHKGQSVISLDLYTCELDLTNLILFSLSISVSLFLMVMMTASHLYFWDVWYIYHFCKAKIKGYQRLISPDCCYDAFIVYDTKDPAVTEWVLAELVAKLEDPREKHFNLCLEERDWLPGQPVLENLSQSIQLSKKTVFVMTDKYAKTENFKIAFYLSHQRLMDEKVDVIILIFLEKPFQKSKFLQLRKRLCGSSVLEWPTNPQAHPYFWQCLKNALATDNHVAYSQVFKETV
Method in brief: (§1)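 HEK-Blue cells expressing human TLR7 or TLR8 with NF-kB/AP1-inducible SEAP reporter, plated 24 h, then compound-treated 18 h at 37° C, 5% CO2. EC50 normalized to 100% Ymax set by 50 μM reference standard.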

TLR8 = target: T2, TLR8 (Homo sapiens, UniProt Q9NR97); experiment: In vitro human TLR8 binding reporter assay (HEK-Blue, NF-kB/AP1-inducible SEAP); type: cell-based; conditions: activity range, read-out: TLR8 Agonist EC50
T2 construct: human HEK-Blue cells co-expressing a TLR7 or TLR8 gene
T2 sequence (Q9NR97 27-1041): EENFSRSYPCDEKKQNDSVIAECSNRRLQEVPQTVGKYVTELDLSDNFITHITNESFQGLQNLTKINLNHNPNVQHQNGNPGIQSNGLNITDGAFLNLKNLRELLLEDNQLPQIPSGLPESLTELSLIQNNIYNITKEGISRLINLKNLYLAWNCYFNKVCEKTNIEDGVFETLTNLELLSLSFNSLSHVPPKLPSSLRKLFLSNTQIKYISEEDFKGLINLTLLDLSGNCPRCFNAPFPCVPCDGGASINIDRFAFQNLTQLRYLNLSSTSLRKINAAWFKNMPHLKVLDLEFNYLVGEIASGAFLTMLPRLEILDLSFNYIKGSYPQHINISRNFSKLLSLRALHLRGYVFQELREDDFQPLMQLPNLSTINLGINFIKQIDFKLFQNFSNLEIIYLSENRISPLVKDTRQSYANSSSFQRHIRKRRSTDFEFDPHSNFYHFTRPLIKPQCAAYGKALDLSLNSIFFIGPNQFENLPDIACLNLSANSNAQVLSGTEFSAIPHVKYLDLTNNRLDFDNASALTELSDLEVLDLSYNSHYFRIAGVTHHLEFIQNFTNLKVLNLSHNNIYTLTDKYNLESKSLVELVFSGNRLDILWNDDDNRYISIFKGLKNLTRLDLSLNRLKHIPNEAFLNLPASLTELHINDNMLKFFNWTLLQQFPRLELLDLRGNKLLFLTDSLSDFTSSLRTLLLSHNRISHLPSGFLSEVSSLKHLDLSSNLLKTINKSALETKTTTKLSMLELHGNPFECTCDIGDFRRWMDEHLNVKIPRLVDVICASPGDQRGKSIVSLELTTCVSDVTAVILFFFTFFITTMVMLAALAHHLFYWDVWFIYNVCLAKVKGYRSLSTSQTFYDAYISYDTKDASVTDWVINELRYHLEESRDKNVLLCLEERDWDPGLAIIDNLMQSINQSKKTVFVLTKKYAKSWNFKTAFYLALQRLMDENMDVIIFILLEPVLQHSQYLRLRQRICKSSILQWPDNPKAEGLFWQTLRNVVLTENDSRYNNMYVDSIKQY
Method in brief: as §1

Structure (SMILES)	EC50 (THP-1 cells)	EC50 (TLR7)	EC50 (TLR8)
Nc1nc2cc(-c3ccn[nH]3)ccc2c2nn(CCCNS(=O)(=O)C3CC3)cc12 [Example 589]	2.62 µM	> 100 µM	> 100 µM
Nc1nc2cc(-c3ccn[nH]3)ccc2c2nn(CCNS(=O)(=O)C3CC3)cc12 [Example 590]	1.2 µM	> 100 µM	> 100 µM
CC(C)(Cn1cc2c(N)nc3cc(-c4ccn[nH]4)ccc3c2n1)C(=O)N1CCOCC1 [Example 591]	17 µM	> 100 µM	> 100 µM
CN(C)C(=O)C(C)(C)Cn1cc2c(N)nc3cc(-c4ccn[nH]4)ccc3c2n1 [Example 592]	0.68 µM	> 100 µM	> 100 µM
Nc1nc2cc(-c3ccn[nH]3)ccc2c2nn(CCNS(=O)(=O)N3CCOCC3)cc12 [Example 593]	28.1 µM	> 100 µM	> 100 µM
CC(C)(Cn1cc2c(N)nc3cc(-c4ccn[nH]4)ccc3c2n1)C(=O)NCCO [Example 594]	7.94 µM	> 100 µM	> 100 µM
Nc1nc2cc(-c3ccn[nH]3)ccc2c2nn(CCCNS(=O)(=O)c3cccnc3)cc12 [Example 595]	12.9 µM	> 100 µM	> 100 µM
CC(C)(Cn1cc2c(N)nc3cc(-c4ccn[nH]4)ccc3c2n1)C(=O)NCC(F)F [Example 596]	10.1 µM	> 100 µM	> 100 µM
CC(C)(Cn1cc2c(N)nc3cc(-c4ccn[nH]4)ccc3c2n1)C(=O)N1CC(O)C1 [Example 597]	8.7 µM	> 100 µM	> 100 µM
CC(C)(Cn1cc2c(N)nc3cc(-c4ccn[nH]4)ccc3c2n1)C(=O)NC1CCC1 [Example 598]	1.98 µM	> 100 µM	> 100 µM
CC(C)(Cn1cc2c(N)nc3cc(-c4ccn[nH]4)ccc3c2n1)C(=O)N1CC(F)(F)C1 [Example 599]	2.18 µM	> 100 µM	> 100 µM
CN(C)C(=O)C1(Cn2cc3c(N)nc4cc(-c5ccn[nH]5)ccc4c3n2)CC1 [Example 600]	3.99 µM	> 100 µM	> 100 µM
CC(C)(Cn1cc2c(N)nc3cc(-c4ccn[nH]4)ccc3c2n1)C(=O)NCc1cccnc1 [Example 601]	32.4 µM	> 100 µM	> 100 µM
CC(C)(Cn1cc2c(N)nc3cc(-c4ccn[nH]4)ccc3c2n1)C(=O)NCC1CCOCC1 [Example 602]	21.2 µM	> 100 µM	> 100 µM
CC(C)NC(=O)C(C)(C)Cn1cc2c(N)nc3cc(-c4ccn[nH]4)ccc3c2n1 [Example 603]	3.05 µM	> 100 µM	> 100 µM
CC(C)(Cn1cc2c(N)nc3cc(-c4ccn[nH]4)ccc3c2n1)C(N)=O [Example 604]	0.85 µM	> 100 µM	> 100 µM

The next lines start with the values.

EC50 (THP-1 cells)	EC50 (TLR7)	EC50 (TLR8)	Structure (SMILES)
22.4 µM	> 100 µM	> 100 µM	Nc1nc2cc(-c3ccn[nH]3)ccc2c2nn(CC3(C(=O)NCc4ccccn4)CC3)cc12 [Example 605]
2.46 µM	> 100 µM	> 100 µM	Nc1nc2cc(-c3ccn[nH]3)ccc2c2nn(CC3(C(=O)NCC(F)F)CC3)cc12 [Example 606]
13.4 µM	> 100 µM	> 100 µM	Nc1nc2cc(-c3ccn[nH]3)ccc2c2nn(CC3(C(=O)N4CCCC4)CC3)cc12 [Example 607]
0.7 µM	> 100 µM	> 100 µM	CNC(=O)C1(Cn2cc3c(N)nc4cc(-c5ccn[nH]5)ccc4c3n2)CC1 [Example 608]
18.1 µM	> 100 µM	> 100 µM	CC(C)(Cn1cc2c(N)nc3cc(-c4ccn[nH]4)ccc3c2n1)C(=O)NCCS(C)(=O)=O [Example 609]
4.41 µM	> 100 µM	> 100 µM	COC1CCN(C(=O)C(C)(C)Cn2cc3c(N)nc4cc(-c5ccn[nH]5)ccc4c3n2)CC1 [Example 610]
9.94 µM	> 100 µM	> 100 µM	CC(C)(Cn1cc2c(N)nc3cc(-c4ccn[nH]4)ccc3c2n1)C(=O)NCc1ccccn1 [Example 611]
